Assays:
Type in all cases: cell-based, Escherichia coli
Conditions in all cases: MHB, 37°C, 24 h, triplicate
[1] = system: E. coli JM109; assay: MIC, broth microdilution, retransformed E. coli JM109
Protocol: (§1) Escherichia coli DH5α, E. coli BL21(DE3), and E. coli JM109 were utilized in this study.
(§2) The MICs were determined using the broth microdilution method in 96-well microtiter plates ([Wiegand et al., 2008]). In brief, a 1:100 dilution of the mid-exponential phase bacterial culture (OD600 = 0.5), consisting of 5 μL (1 × 10^5 CFU/mL), was introduced into polypropylene 96-well plates. These plates contained a two-fold dilution series of AMP in a total volume of 100 μL MHB per well. The incubation of the plates occurred at 37°C in a humidity chamber. The MIC was identified as the lowest concentration that hindered visible bacterial growth after 24 h of incubation. Each experiment was conducted in triplicate.
(§3) Before washing down the colonies, we randomly selected two clones from each plate containing distinct AMP. Colony PCRs were conducted using M13 primer pairs to validate the presence of inserts and determine their sizes. The selected colonies were then subjected to sequencing. The specific details are provided in Supplementary Table S2. Following that, plasmids were isolated using the Plasmid Midiprep Kit (Zomanbio, ZP103) following the manufacturer’s guidelines. After the plasmids were successfully reintroduced into E. coli JM109 and E. coli BL 21(DE3), the MICs of the transformed strains against the AMP used for selection were tested. This testing process was carried out in triplicate.
(§4) Following validation, the colonies displaying resistance underwent additional testing via MIC assessments for the remaining four AMPs that were not employed during the selection process. This experimental procedure was carried out in triplicate.

[2] = system: E. coli DH5α; assay: MIC, broth microdilution, E. coli DH5α carrying pUC118 or resistance-conferring plasmids
Protocol: as §1, §2, §4

[3] = system: E. coli BL21(DE3); assay: MIC, broth microdilution, retransformed E. coli BL21(DE3)
Protocol: as §1, §2, §3, §4

Work on Polymyxin B [PB] yielded an MIC ([1]; colony pUC118-FCST1-JM109 (feces insert 1 selected against colistin)) of 0.25 µg/mL, an MIC ([1]; colony pUC118-FCST2-JM109 (feces insert 2 selected against colistin)) of 1 µg/mL and an MIC ([1]; colony pUC118-FGQ1-JM109 (feces insert 1 selected against melittin)) of 0.5 µg/mL. For the same substance, the MIC ([1]; colony pUC118-FGQ2-JM109 (feces insert 2 selected against melittin)) was 0.5 µg/mL, the MIC ([1]; colony pUC118-FIB1-JM109 (feces insert 1 selected against iseganan)) was 0.25 µg/mL and the MIC ([1]; colony pUC118-FIB2-JM109 (feces insert 2 selected against iseganan)) was 0.5 µg/mL. It also gave an MIC ([1]; colony pUC118-FPB1-JM109 (feces insert 1 selected against polymyxin B)) of 0.5 µg/mL, an MIC ([1]; colony pUC118-FPB2-JM109 (feces insert 2 selected against polymyxin B)) of 0.5 µg/mL and an MIC ([1]; colony pUC118-FSA1-JM109 (feces insert 1 selected against cathelicidin-DM)) of 0.25 µg/mL. It also gave an MIC ([1]; colony pUC118-FSA2-JM109 (feces insert 2 selected against cathelicidin-DM)) of 0.5 µg/mL, an MIC ([1]; colony pUC118-JM109 (control, no insert)) of 0.25 µg/mL and an MIC ([1]; colony pUC118-SCST1-JM109 (soil insert 1 selected against colistin)) of 0.25 µg/mL. It also gave an MIC ([1]; colony pUC118-SCST2-JM109 (soil insert 2 selected against colistin)) of 0.25 µg/mL, an MIC ([1]; colony pUC118-SGQ1-JM109 (soil insert 1 selected against melittin)) of 0.25 µg/mL and an MIC ([1]; colony pUC118-SGQ2-JM109 (soil insert 2 selected against melittin)) of 0.25 µg/mL. It also gave an MIC ([1]; colony pUC118-SIB1-JM109 (soil insert 1 selected against iseganan)) of 0.25 µg/mL, an MIC ([1]; colony pUC118-SIB2-JM109 (soil insert 2 selected against iseganan)) of 0.25 µg/mL and an MIC ([1]; colony pUC118-SPB1-JM109 (soil insert 1 selected against polymyxin B)) of 0.5 µg/mL. For the same substance, the MIC ([1]; colony pUC118-SPB2-JM109 (soil insert 2 selected against polymyxin B)) was 0.5 µg/mL, the MIC ([1]; colony pUC118-SSA1-JM109 (soil insert 1 selected against cathelicidin-DM)) was 0.25 µg/mL and the MIC ([1]; colony pUC118-SSA2-JM109 (soil insert 2 selected against cathelicidin-DM)) was 0.25 µg/mL. The MIC ([2]; E. coli DH5α containing pUC118 plasmids) was 0.5 µg/mL, the MIC ([2]; colony pUC118-DH5α (control, no insert)) was 0.5 µg/mL and the MIC ([2]; colony pUC118-FCST1-DH5α (feces insert 1 selected against colistin)) was 0.5 µg/mL. It also gave an MIC ([2]; colony pUC118-FCST2-DH5α (feces insert 2 selected against colistin)) of 1 µg/mL, an MIC ([2]; colony pUC118-FGQ1-DH5α (feces insert 1 selected against melittin)) of 1 µg/mL and an MIC ([2]; colony pUC118-FGQ2-DH5α (feces insert 2 selected against melittin)) of 1 µg/mL. For the same substance, the MIC ([2]; colony pUC118-FIB1-DH5α (feces insert 1 selected against iseganan)) was 0.5 µg/mL, the MIC ([2]; colony pUC118-FIB2-DH5α (feces insert 2 selected against iseganan)) was 1 µg/mL and the MIC ([2]; colony pUC118-FPB1-DH5α (feces insert 1 selected against polymyxin B)) was 1 µg/mL. The MIC ([2]; colony pUC118-FPB2-DH5α (feces insert 2 selected against polymyxin B)) was 1 µg/mL, the MIC ([2]; colony pUC118-FSA1-DH5α (feces insert 1 selected against cathelicidin-DM)) was 0.5 µg/mL and the MIC ([2]; colony pUC118-FSA2-DH5α (feces insert 2 selected against cathelicidin-DM)) was 1 µg/mL. The MIC ([2]; colony pUC118-SCST1-DH5α (soil insert 1 selected against colistin)) was 0.5 µg/mL, the MIC ([2]; colony pUC118-SCST2-DH5α (soil insert 2 selected against colistin)) was 0.5 µg/mL and the MIC ([2]; colony pUC118-SGQ1-DH5α (soil insert 1 selected against melittin)) was 0.5 µg/mL. For the same substance, the MIC ([2]; colony pUC118-SGQ2-DH5α (soil insert 2 selected against melittin)) was 0.5 µg/mL, the MIC ([2]; colony pUC118-SIB1-DH5α (soil insert 1 selected against iseganan)) was 0.5 µg/mL and the MIC ([2]; colony pUC118-SIB2-DH5α (soil insert 2 selected against iseganan)) was 0.5 µg/mL. The MIC ([2]; colony pUC118-SPB1-DH5α (soil insert 1 selected against polymyxin B)) was 1 µg/mL, the MIC ([2]; colony pUC118-SPB2-DH5α (soil insert 2 selected against polymyxin B)) was 2 µg/mL and the MIC ([2]; colony pUC118-SSA1-DH5α (soil insert 1 selected against cathelicidin-DM)) was 0.5 µg/mL. The MIC ([2]; colony pUC118-SSA2-DH5α (soil insert 2 selected against cathelicidin-DM)) was 0.5 µg/mL, the MIC ([3]; colony pUC118-BL21(DE3) (control, no insert)) was 1 µg/mL and the MIC ([3]; colony pUC118-FCST1-BL21(DE3) (feces insert 1 selected against colistin)) was 1 µg/mL. The MIC ([3]; colony pUC118-FCST2-BL21(DE3) (feces insert 2 selected against colistin)) was 2 µg/mL, the MIC ([3]; colony pUC118-FGQ1-BL21(DE3) (feces insert 1 selected against melittin)) was 2 µg/mL and the MIC ([3]; colony pUC118-FGQ2- BL21(DE3) (feces insert 2 selected against melittin)) was 2 µg/mL. It also gave an MIC ([3]; colony pUC118-FIB1-BL21(DE3) (feces insert 1 selected against iseganan)) of 1 µg/mL, an MIC ([3]; colony pUC118-FIB2-BL21(DE3) (feces insert 2 selected against iseganan)) of 2 µg/mL and an MIC ([3]; colony pUC118-FPB1-BL21(DE3) (feces insert 1 selected against polymyxin B)) of 4 µg/mL. It also gave an MIC ([3]; colony pUC118-FPB2-BL21(DE3) (feces insert 2 selected against polymyxin B)) of 2 µg/mL, an MIC ([3]; colony pUC118-FSA1-BL21(DE3) (feces insert 1 selected against cathelicidin-DM)) of 1 µg/mL and an MIC ([3]; colony pUC118-FSA2-BL21(DE3) (feces insert 2 selected against cathelicidin-DM)) of 4 µg/mL. It also gave an MIC ([3]; colony pUC118-SCST1-BL21(DE3) (soil insert 1 selected against colistin)) of 1 µg/mL, an MIC ([3]; colony pUC118-SCST2-BL21(DE3) (soil insert 2 selected against colistin)) of 1 µg/mL and an MIC ([3]; colony pUC118-SGQ1-BL21(DE3) (soil insert 1 selected against melittin)) of 1 µg/mL. The MIC ([3]; colony pUC118-SGQ2-BL21(DE3) (soil insert 2 selected against melittin)) was 1 µg/mL, the MIC ([3]; colony pUC118-SIB1-BL21(DE3) (soil insert 1 selected against iseganan)) was 1 µg/mL and the MIC ([3]; colony pUC118-SIB2-BL21(DE3) (soil insert 2 selected against iseganan)) was 1 µg/mL. The MIC ([3]; colony pUC118-SPB1-BL21(DE3) (soil insert 1 selected against polymyxin B)) was 2 µg/mL, the MIC ([3]; colony pUC118-SPB2-BL21(DE3) (soil insert 2 selected against polymyxin B)) was 2 µg/mL and the MIC ([3]; colony pUC118-SSA1-BL21(DE3) (soil insert 1 selected against cathelicidin-DM)) was 1 µg/mL. For the same substance, the MIC ([3]; colony pUC118-SSA2-BL21(DE3) (soil insert 2 selected against cathelicidin-DM)) was 1 µg/mL.

Source: PMC10999558, “Analyzing resistome in soil and Human gut: a study on the characterization and risk evaluation of antimicrobial peptide resistance” (Frontiers in Microbiology, 2024)
